Measured values taken from ChEMBL document CHEMBL1143224, “An asymmetric C8/C8'-tripyrrole-linked sequence-selective pyrrolo[2,1-c][1,4]benzodiazepine (PBD) dimer DNA interstrand cross-linking agent spanning 11 DNA base pairs” (2008).

Legend:
K562 = assay: Cytotoxicity against human K562 cells; format: functional
Escherichia coli = assay: Induction of cross linking in DS pUC18 plasmid
[1] = Cytotoxicity against human NCI60 cells; format: functional

Compound | GI50 (K562) [nM] | XL50 (Escherichia coli) [µM] | GI50 [1] [nM] | TGI [1] [nM] | LC50 [1] [nM]
C=C1C[C@H]2C=Nc3cc(OCCCOc4cc5c(cc4OC)C(=O)N4CC(=C)C[C@H]4C=N5)c(OC)cc3C(=O)N2C1 [SJG-136] | 8 | 0.06 | 7 | 87 | 
COc1cc2c(cc1OCCCNC(=O)c1cc(NC(=O)c3cc(NC(=O)c4cc(NC(=O)CCCOc5cc6c(cc5OC)C(=O)N5CCC[C@H]5C=N6)cn4C)cn3C)cn1C)N=C[C@@H]1CCCN1C2=O | 37 | 0.23 | 14 | 490 | 22900
